Source: patent US20220265776A1, “COMBINATION” (GENESIS PHARMA SA, priority 2019, published 2022)

What was measured:
[1] = test system: rat thromboembolic model of stroke; details: continuous infusion (75 ng/h), at 7 days post middle cerebral artery occlusion; cited from earlier work
[2] = test system: rat model of transient middle cerebral artery occlusion; assay: Rat t-MCAO: modified neurological severity score (NSS), scale 0 to 18; type: in vivo; details: for modified neurological severity score (NSS) compared with the control group on Day 2 / modified neurological severity score (NSS) compared with the control group on Day 7: monotherapy; for Modified NSS on Day 2 (mean + SD) / Modified NSS on Day 7 (mean + SD) / percentage change of Modified NSS on Day 2 vs the control group / percentage change of Modified NSS on Day 7 vs the control group: repeated administration (7 days)
Method: (§1) Test compounds were administrated intravenously 20 minutes before reperfusion and then twice a day thereafter for six consecutive days. The modified neurological severity score (NSS) was graded on a scale of 0 to 18 (in which normal score was 0 and maximal deficit score was represented by 18), on Study Day 2 (one day following surgery) and on Study Day 7 (7 days post-surgery and before study termination); it included a set of clinical-neurological tests (composite of motor, sensory, reflex and balance tests). At study termination brains were harvested, sliced into five 2 mm thick coronal sections and stained with triphenyl tetrazolium chloride (TTC) for infarct size measurement using ImageJ program. Morbidity, mortality, body weight and clinical observation were also recorded. […] The statistical significance (P) of treated groups vs the untreated control group was determined using two-way ANOVA followed by Bonferroni post hoc test, using GraphPad Prism 5 program.
(§2) Due to mortality in some of the groups, the numbers within the groups were adjusted to have sufficient animals in all the groups.
(§3) In study Part II, a total of 86 SD male rats (270-320 gr upon arrival) were divided into 9 groups (7 or 15 rats per treated group and 6 rats in the control group). Due to mortality in some of the groups, the numbers within the groups were adjusted to have sufficient animals in all the groups.

[3] = test system: rat model of stroke (middle cerebral artery occlusion); details: 10 μg/kg IP loading dose plus 200 ng/h sc infusion beginning 4.5 h or 10 h after onset of ischemia; cited from earlier work
[4] = test system: rat model of transient middle cerebral artery occlusion; assay: Rat t-MCAO: brain infarct size (TTC staining, ImageJ); type: in vivo; details: for Relative brain infarct volume on Day 7 (%) (mean + SD) / percentage change of relative brain infarct volume on Day 7 vs the control group: repeated administration (7 days); for efficacy when administered as monotherapies: low doses, monotherapy
Method: as §1, §2, §3

[5] = Treatment I: glibenclamide 1 μg/Kg iv
[6] = Treatment J: glibenclamide 3 μg/Kg iv
[7] = Treatment K: glibenclamide 10 μg/Kg iv
[8] = Treatment L: glibenclamide 30 μg/Kg iv
[9] = lowest doses (treatments A, E and I)
[10] = Treatment F: potassium canrenoate 1 mg/Kg iv
[11] = Treatment G: potassium canrenoate 3 mg/Kg iv
[12] = Treatment H: potassium canrenoate 10 mg/Kg iv

COc1ccc(Cl)cc1C(=O)NCCc1ccc(S(=O)(=O)NC(=O)NC2CCCCC2)cc1 [GLIBENCLAMIDE, 5-chloro-N-[2-[4-(cyclohexylcarbamoyl-sulfamoyl)phenyl]ethyl]-2-methoxybenzamide]
reduction of cerebral edema, infarct volume and mortality [1]: 50% | modified neurological severity score (NSS) compared with the control group on Day 2 ([2]; 3 μg/kg dose (treatment J)): did not show a statistically significant decrease | Modified NSS on Day 2 (mean + SD) [2, 5]: 14 ± 1 | Modified NSS on Day 7 (mean + SD) [2, 5]: 12 ± 1 | percentage change of Modified NSS on Day 2 vs the control group [2, 5]: [0%; NS] | percentage change of Modified NSS on Day 7 vs the control group [2, 5]: [−8%; NS] | Modified NSS on Day 2 (mean + SD) [2, 6]: 13 ± 3 | Modified NSS on Day 7 (mean + SD) [2, 6]: 10 ± 1 | percentage change of Modified NSS on Day 2 vs the control group [2, 6]: [−7%; NS] | percentage change of Modified NSS on Day 7 vs the control group [2, 6]: [−23%; *] | Modified NSS on Day 2 (mean + SD) [2, 7]: 11 ± 3 | Modified NSS on Day 7 (mean + SD) [2, 7]: 8 ± 2 | percentage change of Modified NSS on Day 2 vs the control group [2, 7]: [−21%; **] | percentage change of Modified NSS on Day 7 vs the control group [2, 7]: [−38%; ***] | Modified NSS on Day 2 (mean + SD) [2, 8]: 11 ± 3 | Modified NSS on Day 7 (mean + SD) [2, 8]: 8 ± 1 | percentage change of Modified NSS on Day 2 vs the control group [2, 8]: [−21%; **] | percentage change of Modified NSS on Day 7 vs the control group [2, 8]: [−38%; ***] | modified neurological severity score (NSS) compared with the control group on Day 2 [2, 9]: did not show a statistically significant decrease | modified neurological severity score (NSS) compared with the control group on Day 7 [2, 9]: did not show a statistically significant decrease | hemispheric swelling at 24 h and 48-h mortality [3]: significantly reduced | Relative brain infarct volume on Day 7 (%) (mean + SD) [4, 5]: 33 ± 10% | percentage change of relative brain infarct volume on Day 7 vs the control group [4, 5]: [−21%; NS] | Relative brain infarct volume on Day 7 (%) (mean + SD) [4, 6]: 19 ± 9% | percentage change of relative brain infarct volume on Day 7 vs the control group [4, 6]: [−55%; ***] | Relative brain infarct volume on Day 7 (%) (mean + SD) [4, 7]: 16 ± 9% | percentage change of relative brain infarct volume on Day 7 vs the control group [4, 7]: [−62%; ***] | Relative brain infarct volume on Day 7 (%) (mean + SD) [4, 8]: 17 ± 8% | percentage change of relative brain infarct volume on Day 7 vs the control group [4, 8]: [−60%; ***] | efficacy when administered as monotherapies [4]: ineffective

C[C@]12CCC(=O)C=C1C=C[C@@H]1[C@@H]2CC[C@@]2(C)[C@H]1CC[C@@]2(O)CCC(=O)[O-].[K+] [POTASSIUM CANRENOATE, potassium 3-[(8R,9S,10R,13S,14S,17R)-17-hydroxy-10,13-dimethyl-3-oxo-2,8,9,11,12,14,15,16 octahydro-1H-cyclopenta[a]phenanthren-17-yl]propanoate]
Modified NSS on Day 2 (mean + SD) [2, 10]: 12 ± 3 | Modified NSS on Day 7 (mean + SD) [2, 10]: 8 ± 1 | percentage change of Modified NSS on Day 2 vs the control group [2, 10]: [−14%; *] | percentage change of Modified NSS on Day 7 vs the control group [2, 10]: [−38%; ***] | Modified NSS on Day 2 (mean + SD) [2, 11]: 11 ± 2 | Modified NSS on Day 7 (mean + SD) [2, 11]: 10 ± 2 | percentage change of Modified NSS on Day 2 vs the control group [2, 11]: [−21%; *] | percentage change of Modified NSS on Day 7 vs the control group [2, 11]: [−23%; *] | Modified NSS on Day 2 (mean + SD) [2, 12]: 10 ± 1 | Modified NSS on Day 7 (mean + SD) [2, 12]: 8 ± 1 | percentage change of Modified NSS on Day 2 vs the control group [2, 12]: [−29%; **] | percentage change of Modified NSS on Day 7 vs the control group [2, 12]: [−38%; ***] | modified neurological severity score (NSS) compared with the control group on Day 2 [2, 9]: did not show a statistically significant decrease | modified neurological severity score (NSS) compared with the control group on Day 7 [2, 9]: did not show a statistically significant decrease | Relative brain infarct volume on Day 7 (%) (mean + SD) [4, 10]: 15 ± 6% | percentage change of relative brain infarct volume on Day 7 vs the control group [4, 10]: [−64%; ***] | Relative brain infarct volume on Day 7 (%) (mean + SD) [4, 11]: 28 ± 11% | percentage change of relative brain infarct volume on Day 7 vs the control group [4, 11]: [−33%; **] | Relative brain infarct volume on Day 7 (%) (mean + SD) [4, 12]: 12 ± 3% | percentage change of relative brain infarct volume on Day 7 vs the control group [4, 12]: [−71%; ***] | efficacy when administered as monotherapies [4]: ineffective
